Results as given in US20110301079A1, “NEUROMEDIN U RECEPTOR AGONISTS AND USES THEREOF” (Instituto di Ricerche di Biologia Molecolare P. Angeletti …, priority 2007, published 2011).

Tests used:
dog NMUR1-ATG = test: FLIPR calcium mobilization assay, dog NMUR1-ATG cell line; format: cell-based
From the text: (§1) Human, mouse or rat cDNAs encoding NMUR1 or NMUR2 (as described in Howard et al. Nature 406: 70-74 (2000) were subcloned in pcDNA5 (Invitrogen) and transfected into FLP-In CHO cells and HEK-293 FLP-In cells purchased from Invitrogen (Carlsbad, Calif.) using lipofectamine (Invitrogen). The Flp-In system allows integration and expression of a particular gene of interest at a specific genomic location utilizing the Flp recombinase from yeast. The transfected cells were selected by growth in medium containing 200 μg/mL hygromycin (Invitrogen). Populations were frozen at early passage numbers, and these stocks were used for further studies. Stable clones that expressed the mRNAs were identified functionally by FLIPR as well as by RT-PCR. […] Two different rodent NMUR1 cell lines were thus generated: one with the codon as predicted from the genomic databases and another cell line with an engineered methionine (ATG) as the start codon. The dog NMU receptors were also cloned from intestine RNA (NMUR1) and brain (NMUR2) and stable cell lines were generated as used for the human and rodent cell lines. […] To ensure high levels of expression in a heterologous system, a dog NMUR1 cell line was generated that contains an ATG as the start codon. Additionally, stable cell lines expressing the human receptors were generated in HEK-293/aeq 17 cells which stably express the aequorin gene under the CMV promoter. The human NMUR2 cDNA was cloned into pcDNA3.1 and human NMUR1 was subcloned into pIRES-puro (Clontech, Mountain View, Calif.), after transfection cells were selected in media containing G418 and either hygromycin (NMUR2) or puromycin (NMUR1).
(§2) The NMU receptors signal primarily through Gαq/11 proteins; therefore calcium mobilization assays can be utilized for functional activity.
(§3) Stable cell lines expressing human and or rodent NMUR1 or human NMUR2 receptors are plated at a density of 12,000 cells per well overnight on poly-lysine coated 384-well black-walled plates. The following day, the media is removed from the plates and the cells were subsequently loaded with Fluo-3 (Molecular Probes), a calcium sensitive dye, diluted in FLIPR buffer (1× Hank's buffered saline containing 20 mM HEPES, 0.1% BSA, 2.5 mM probenecid (Sigma) and 1.6 mM TR40). All reagents are from Invitrogen unless otherwise noted. Peptide stocks are resuspended in DMSO at a stock concentration of 2 mM and diluted in FLIPR buffer on the day of the experiment to a 4 μM working stock solution.
(§4) After a 90 minute incubation at room-temperature, cell plates are loaded onto a FLIPR (Molecular Devices) to monitor cellular fluorescence (excitation=488 nm; emission=540 nm) before and after compound/peptide addition. Eight to twelve point dose responses are tested on NMUR-expressing cell lines using FLIPR with 1 μM peptide as the highest dose. The response after peptide addition is taken as the maximum fluorescence units minus the fluorescence immediately prior to stimulation for each well. EC50 values are calculated using GraphPad Prism (San Diego, Calif.) software.
(§5) Percent activity refers to the maximum response at 1 μM compared to the human NMU-25 response at the same concentration.

[1] = Pharmacokinetic analysis using the FLIPR-based bioassay of plasma; format: in vivo; conditions: mice, 10 mg/kg subcutaneously, FIG. 5
Protocol: Peptide exposure levels in dosed animals were measured using the bioassay. Animals were dosed subcutaneously and plasma was collected at various time points post-dose. The bioassay is a FLIPR-based assay that measures the concentration of peptide in plasma from animals dosed with hNMU-25 or NMS. The assay is run essentially as described above (Example 2) with the following modifications: sample preparation prior to the assay is performed on ice to minimize degradation of plasma samples. The assay was run with 4% plasma as the final concentration. A three-point titration was done with the dosed plasma and tested on human NMUR1-expressing cell lines using FLIPR. The response after sample addition was taken as the maximum fluorescence units minus the fluorescence immediately prior to stimulation for each well. In addition to a three-point titration of dosed plasma samples, a 16-point titration of the peptide (hNMU-25 or NMS) was run in 4% plasma (naive plasma) to serve as the standard. The concentration of the peptide in plasma was calculated based on extrapolations from the appropriate standard using the GraphPad Prism software.
In the experiment, the animals were dosed subcutaneously with 10 mg/kg of human NMU-25 or human NMS and plasma was collected at various time points post dose and measured in the Bioassay. […]

mouse NMUR2 = target: T1, mouse NMUR2 (Mus musculus, UniProt Q8BZ39); test: FLIPR calcium mobilization assay, mouse NMUR2 cell line; format: cell-based
T1 construct: expressed in transfected cells; host or cells: FLP-In CHO cells and HEK-293 FLP-In cells (pcDNA5)
T1 sequence (Q8BZ39 whole entry): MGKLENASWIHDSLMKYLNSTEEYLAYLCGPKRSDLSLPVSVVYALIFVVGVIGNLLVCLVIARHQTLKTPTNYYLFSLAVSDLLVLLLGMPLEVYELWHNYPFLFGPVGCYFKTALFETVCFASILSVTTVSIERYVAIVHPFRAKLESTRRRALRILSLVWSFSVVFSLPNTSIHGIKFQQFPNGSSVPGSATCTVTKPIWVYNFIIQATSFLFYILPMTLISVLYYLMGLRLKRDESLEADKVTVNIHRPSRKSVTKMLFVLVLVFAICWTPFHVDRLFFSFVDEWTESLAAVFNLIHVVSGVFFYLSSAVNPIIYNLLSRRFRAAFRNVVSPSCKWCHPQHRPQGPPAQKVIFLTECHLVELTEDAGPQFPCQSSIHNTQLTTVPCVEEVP
From the text: as §1, §2, §3, §4, §5

[2] = system: male C57BL/6 diet-induced obese mice; test: Intraperitoneal glucose tolerance test (IPGTT); format: in vivo; conditions: one and three mpk injected 30 minutes before IPGTT, glucose 2 g/kg i.p., either dosage level
Protocol: Fourteen male C57BL/6 diet-induced obese mice (˜30 wk age) were used. Five hours before the experiment, food was removed, and clean cages were provided. Saline with or without NMS at one and three mpk were injected 30 minutes before the IPGTT and a blood sample was taken. Then glucose (2 g/kg) was injected intraperitoneally. Blood samples were taken after 15, 30, 60, 90, and 120 minutes and glucose levels were determined with the glucose oxidase method.

[3] = system: wild-type, Nmur1 knockout, Nmur2 knockout and Nmur1/Nmur2 double knockout mice; test: Acute feeding study in wild-type and Nmur knockout mice; format: in vivo
Protocol: Ad libitum fed male diet-induced obese mice obtained from Taconic Farms were weighed and dosed either i.p. or s.c. with NMS or NMU at about 30 minutes prior to the onset of the dark phase of the light cycle and provided with a pre-weighed aliquot of high fat diet (D12492: 60% kcal from fat: Research Diets, Inc.), which was then weighed two and 18 hours after the onset of the initial dark phase. Mice were weighed at the 18 hour (overnight) time point.
NMUR1 knockout (Nmur1−/−) mice were generated using standard homologous recombination techniques. Nmur1 mice were subsequently transferred to Taconic Farms where they were either maintained on a 75% C57BL/6×25% 129S6/SvEv mixed genetic background or backcrossed 6 generations to C57BL/6. NMUR2 knockout (Nmur2−/−) mice were licensed from Deltagen Inc., San Mateo, Calif. and subsequently transferred to Taconic Farms were they were either maintained on a 75% C57BL/6×25% 129/OlaHsd mixed genetic background or backcrossed for 7 generations to C57BL/6. NMUR1 and NMUR2 double knockout (Nmur1&2−/−) mice were generated by crossing N6 Nmur1−/− mice to N7 Nmur2−/− mice. Mice were individually housed in Tecniplast cages in a conventional SPF facility. Mice were initially maintained on a regular chow diet and then early in their life were switched to a high fat diet (D12492) with ad libitum access to water in a 12-h light/12-h dark cycle.
The anorectic effects of NMS1 were mediated by both the NMUR1 and NMUR2 receptors. […] Effects on food intake (FIG. 9A) and body weight (FIG. 9B) are shown.

EC50 (dog NMUR1-ATG; FLIPR): 4.4 nM | metabolic stability in vivo compared to NMU [1]: greater metabolic stability | EC50 (mouse NMUR2; mouse NMUR2, FLIPR): 7.8 nM | % Activity (mouse NMUR2; mouse NMUR2, maximum response at 1 μM compared to the human NMU-25 response at the same concentration): 111%
Substance: H-ILQRGSGTAAVDFTKKDHTATWGRPFFLFRPRN-NH2 [NMS, reference compound]
% Activity (dog NMUR1-ATG; maximum response at 1 μM compared to the human NMU-25 response at the same concentration): 100% | glucose metabolism (IPGTT) [2]: enhanced glucose metabolism | food intake ([3]; Nmur1 knockout mice, highest dose tested): modest but significant effect | food intake ([3]; acute peripheral administration, Nmur1 knockout mice): not in Nmur1 knockout mice | food intake ([3]; acute peripheral administration, Nmur2 knockout mice): significantly reduced | food intake ([3]; acute peripheral administration, wild-type mice): significantly reduced
